{
  "source": "patent US4933356A",
  "about": "“Diflunisal potentiation of acetazolamide in the control of intraocular pressure” (Cornell Research Foundation, Inc., priority 1988, dated 1990)",
  "key": {"[1]": {"system": "plasma albumin / plasma protein", "conditions": "cited from earlier work"}, "[2]": {"system": "glaucoma patients (intraocular pressure)", "experiment": "Change in intraocular pressure (IOP) in glaucoma patients after one week of added diflunisal", "type": "in vivo, human", "conditions": "for Change in IOP following diflunisal treatment: Table I, mean ± SD; for effect of diflunisal on hypotensive action / IOP (in words): diflunisal added to stated drug", "description": "(§3) All subjects taking part in this study participated voluntarily and an informed consent was obtained from each prior to their enrollment in the study. Forty-eight glaucoma patients (19 men and 29 women) on maximally tolerated antiglaucoma medications were assigned consecutively to the study. […] All eyes were treated with at least one preparation of topical antiglaucoma medications; pilocarpine (60 eyes), epinephrine or dipivefrin hydrochloride (27 eyes), timolol, levobunolol or betaxolol (80 eyes), and echothiophate iodide (17 eyes). Upon entering the study each patient received a full ophthalmologic examination which included a visual acuity determination, slitlamp examination, IOP measurement (baseline) with a Goldmann applanation tonometer, gonioscopy, and a dilated fundus examination. Patients were instructed to take oral diflunisal, 500 mg, twice daily for one week, while their regular antiglaucoma medications remained unchanged. A week later patients were examined again for visual acuity, slit lamp examination, IOP measurement and a history of side effects. Baseline and follow-up IOP was measured by the same investigator using the same tonometer at approximately the same time of day."}, "human plasma protein": {"system": "human plasma protein", "conditions": "cited from earlier work"}, "[3]": {"experiment": "Plasma unbound acetazolamide in patients by dialysis, before/after diflunisal", "type": "in vitro ADME", "conditions": "human, seven patients", "experimental": "(§1) In 15 acetazolamide-treated patients 2-3 cc of venous blood was drawn before and again, at the same time of day, after one week on diflunisal for determination of total plasma concentration of acetazolamide. The blood sample underwent centrifugation at 5000 rpm for 5 minutes, and the plasma was separated and refrigerated until analysis. In addition, the plasma of seven of these 15 acetazolamide-treated patients was subjected to dialysis for determination of binding to albumin.\n(§2) Acetazolamide was analyzed by assay against carbonic anhydrase (Maren, T. H., J. Pharmacol. Exp. Therap.. 130:26 (1960)). Dialysis was carried out in a specially constructed cell consisting of two chambers of 1 ml capacity separated by Spectra/Por membrane, MW cutoff 6,000-8,000, Spectrum Med. Industries. One ml plasma, after analysis for total drug, was introduced to one compartment and 1 ml physiological saline to the other. The solutions were each mixed for 18 hours at 25* and then analyzed and calculated for free and total drug."}, "[4]": {"experiment": "In vitro plasma binding of acetazolamide with graded concentrations of diflunisal (dialysis)", "type": "in vitro ADME", "conditions": "human, 90 μM acetazolamide", "experimental": "An in vitro study was performed for the effect of graded doses of diflunisal on the plasma binding of acetazolamide. Both drugs were added to plasma of a single non-glaucomatous individual and duplicate dialyses were done.\nas §2\n^a In Vitro plasma binding of 90 μM acetazolamide in a single\nindividual ([…]) following graded concentrations of diflunisal."}, "[5]": {"experiment": "Plasma protein binding (background and discussion)", "type": "in vitro ADME", "conditions": "read-out: plasma albumin binding of acetazolamide (converted)"}, "[6]": {"experiment": "Plasma concentration of acetazolamide (total and free) in glaucoma patients, before/after diflunisal", "type": "in vivo, human", "conditions": "for concentration: 15 patients, read-out: total acetazolamide plasma level", "experimental": "as §1\nA blood sample was also taken from six acetazolamide-treated patients twice at a one week interval without diflunisal treatment.\nas §2"}, "glaucoma patients": {"system": "glaucoma patients", "experiment": "Side effects in glaucoma patients after addition of diflunisal", "conditions": "acetazolamide plus diflunisal; severe nausea and extreme confusion", "description": "as §3"}, "[7]": {"system": "normal volunteers (intraocular pressure)", "experiment": "Change in intraocular pressure in normal volunteers (control group) given diflunisal alone", "type": "in vivo, human", "conditions": "normal controls", "experimental": "Eight normal volunteers (52.3±16.4 years) on no medications participated in this study as a control group to study the ocular hypotensive effect of diflunisal itself and were given oral diflunisal, 500 mg, twice daily for one week. The examinations before and after diflunisal were similarly taken as glaucoma patients described above."}, "[8]": {"system": "prostaglandin synthesis (cyclooxygenase)", "conditions": "at high doses; cited from earlier work"}, "[9]": {"conditions": "in vivo; cited from earlier work"}, "[10]": {"conditions": "cited from earlier work"}, "[11]": {"conditions": "diflunisal 500 mg oral twice daily, one week, added to stated antiglaucoma medication"}},
  "note": "“And” between values parts separate entries of the source, which are not always exact repeats. Equal values may be shown once. “Also recorded” adds a separate entry of the source. Read-outs that look alike come from different tables or passages of the source.",
  "data": [
    {"compound": "CC(=O)/N=c1/sc(S(N)(=O)=O)nn1C", "note": "[Methazolamide]", "values": [
      {"measurement": "plasma protein binding", "setting": "[1]", "result": 55, "unit": "%"},
      {"measurement": "Change in IOP following diflunisal treatment", "setting": "[2]; [11]", "result": "-1.6 ± 1.5", "unit": "mm Hg"},
      {"measurement": "mean reduction of IOP", "setting": "[2]; added diflunisal 500 mg twice daily, one week, vs baseline", "result": "1.6±1.5", "unit": "mm Hg"},
      {"measurement": "effect of diflunisal on hypotensive action / IOP (in words)", "setting": "[2]", "result": "did not result in a significant reduction of IOP; also recorded: did not affect the hypotensive action"}
    ]},
    {"compound": "O=C(O)c1ccccc1O", "note": "[Salicylate, salicylic acid]", "values": [
      {"measurement": "unbinding of acetazolamide from plasma proteins", "setting": "human plasma protein", "result": "unbind acetazolamide from plasma proteins"}
    ]},
    {"compound": "CC(=O)Nc1nnc(S(N)(=O)=O)s1", "note": "[Acetazolamide, 5-acetamido-1,3,4-thiadiazole-2-sulfonamide]", "values": [
      {"measurement": "fraction unbound at 18 h", "setting": "[3]; after diflunisal", "result": "0.162 ± 0.087"},
      {"measurement": "fraction unbound at 18 h", "setting": "[3]; before diflunisal", "result": "0.043 ± 0.027"},
      {"measurement": "fraction unbound at 18 h, 90 µM", "setting": "[4]; diflunisal 0 μm", "result": 0.07},
      {"measurement": "fraction unbound at 18 h, 90 µM", "setting": "[4]; diflunisal 200 μm", "result": 0.14},
      {"measurement": "fraction unbound at 18 h, 90 µM", "setting": "[4]; diflunisal 400 μm", "result": 0.22},
      {"measurement": "fraction unbound at 18 h, 90 µM", "setting": "[4]; diflunisal 600 μm", "result": 0.26},
      {"measurement": "fraction unbound", "setting": "[5]; reduced by diflunisal", "result": "~0.2"},
      {"measurement": "fraction unbound", "setting": "[5]; without diflunisal", "result": "0.03 to 0.07"},
      {"measurement": "concentration", "setting": "[6]; after one week on diflunisal, P<0.015 vs baseline", "result": "31.8 ± 16.1", "unit": "µM"},
      {"measurement": "concentration", "setting": "[6]; baseline before diflunisal", "result": "19.1 ± 9.1", "unit": "µM"},
      {"measurement": "increase in free plasma levels of acetazolamide", "setting": "[6]; addition of diflunisal", "result": 5.6, "unit": "fold"},
      {"measurement": "increase in total plasma levels of acetazolamide", "setting": "[6]; addition of diflunisal", "result": "~50", "unit": "%"},
      {"measurement": "free (unbound) acetazolamide plasma concentration", "setting": "[6]; after diflunisal", "result": "5.6 ± 4.1 µM and 5.6 µM"},
      {"measurement": "free (unbound) acetazolamide plasma concentration", "setting": "[6]; before diflunisal", "result": "1.0 ± 0.6 µM and 1.0 µM"},
      {"measurement": "change in total acetazolamide plasma level over one week", "setting": "[6]; six patients without additional diflunisal, P≥0.05", "result": "no significant change"},
      {"measurement": "relationship between daily dosage of acetazolamide and IOP reduction", "setting": "[2]; FIG. 1, after one week of diflunisal", "result": "no relationship between the daily dosage of acetazolamide and the IOP reduction"},
      {"measurement": "Change in IOP following diflunisal treatment", "setting": "[2]; [11]", "result": "-3.8 ± 3.1", "unit": "mm Hg"},
      {"measurement": "effect of diflunisal on hypotensive action / IOP (in words)", "setting": "[2]", "result": "significant decrease in IOP"},
      {"measurement": "patients dropped from study because of severe side effects", "setting": "glaucoma patients", "result": "Two"}
    ]},
    {"compound": "O=C(O)c1cc(-c2ccc(F)cc2F)ccc1O", "note": "[Diflunisal, 2-(hydroxy)-5-(2,4-difluorophenyl) benzoic acid]", "values": [
      {"measurement": "Change in IOP following diflunisal treatment", "setting": "[7]; Table I, diflunisal alone 500 mg twice daily, one week, n = 16 eyes, mean ± SD", "result": "0.0 ± 1.0", "unit": "mm Hg"},
      {"measurement": "change in IOP after diflunisal (in words)", "setting": "[7]; diflunisal alone", "result": "no significant change in IOP; also recorded: did not result in a significant reduction of IOP"},
      {"measurement": "displacement of drugs from plasma protein", "setting": "human plasma protein", "result": "can unbind partially bound compounds such as salicylic acid and phenprocoumin"},
      {"measurement": "displacement of drugs from plasma protein", "setting": "human plasma protein; listed as diflunisal", "result": "displace the following compounds from human plasma protein: salicylate and phenprocoumin"},
      {"measurement": "inhibition of prostaglandin synthesis", "setting": "[8]", "result": "inhibits prostaglandin synthesis"},
      {"measurement": "most frequent adverse reactions", "setting": "[9]", "result": "nausea, gastrointestinal discomfort and diarrhea"},
      {"measurement": "tolerability versus aspirin", "setting": "[9]", "result": "generally better tolerated than aspirin"},
      {"measurement": "Change in IOP following diflunisal treatment", "setting": "[2]; diflunisal 500 mg twice daily, one week, topically treated only, n = 22 eyes", "result": "-0.7 ± 2.1", "unit": "mm Hg"},
      {"measurement": "change in IOP after diflunisal (in words)", "setting": "[2]; patients on topical medications alone, plus diflunisal", "result": "no significant change in IOP; also recorded: did not result in a significant reduction of IOP"},
      {"measurement": "time to steady state plasma levels", "setting": "[10]; 500 mg twice daily", "result": "3 to 9", "unit": "days"},
      {"measurement": "time to peak plasma levels", "setting": "[10]; in vivo, po", "result": "2 to 3", "unit": "h"},
      {"measurement": "absorption from the intestines", "setting": "[10]; in vivo", "result": "well absorbed from the intestines"},
      {"measurement": "excretion", "setting": "[10]; in vivo", "result": "excreted mostly in the urine as a glucuronide"}
    ]}
  ]
}
